Tested on: egg chorioallantoic membrane (CAM)
Test: Ocular irritation assay (HET-CAM)
Set-up: species or system White Leghorn chicken eggs
Settings: 100 mg/ml, CAM observed for 5 minutes
From the text: The HET-CAM is an alternative method to the Draize Rabbit Eye Test which mimics vascular changes in the chorioallantoic membrane, an analog for ocular conjunctiva, which can be used to determine the potential irritancy of a test substance. This method is based on that described in Hen's Egg Test-Chorioallantoic Membrane (HET-CAM) Test Method (ICCVAM-Recommended Test Method Protocol, NIH Publication No. 10-7553—Published 2010)
Fertilized white SPF (special pathogen free) White Leghorn chicken eggs were incubated at 37° C. and 60% humidity up to day 10. After determination of the viability of the embryo, a rectangular window was removed from the shell directly over the air cell and the egg membrane was carefully moistened with 2-3 ml 0.9% saline. After returning to the incubator for 30 minutes, the inner membrane was removed and the test substance was applied to the CAM membrane with a pipette. Eggs were observed continuously for 5 minutes for the appearance of lysis, hemorrhage and/or coagulation and an irritation score (IS) was determined following the ICCVAM-Recommended Test Method Protocol (NIH Publication No. 10-7553-Published 2010) guideline.

Structure (SMILES) | HET-CAM irritation characterization | HET-CAM lysis, haemorrhage or coagulation processes
CCNCC.O=S(=O)(O)c1cc(O)ccc1O [etamsylate, diethylamine 2,5-dihydroxybenzenesulfonate] | not irritating | did not trigger any lysis, haemorrhage or coagulation processes
O=S(=O)([O-])c1cc(O)ccc1O.[K+] [potassium dobesilate] | not irritating | did not trigger any lysis, haemorrhage or coagulation processes

— patent US20200390729A1, “OPHTHALMIC TOPICAL COMPOSITION COMPRISING DOBESILIC ACID FOR TREATING DISEASES OF THE POSTERIOR SEGMENT OF THE EYE” (LABORATORIOS SALVAT, S.A., priority 2017, published 2020)
